Among the data in patent US9650616B2, “Methods for increasing grain yield” (University of Florida Research Foundation, Inc., priority 2014, dated 2017) are Km values, retold here.

The target of test [1] is T1, maize endosperm AGPase, large subunit variant GGRV (Q96G, D161G, A443R, I285V; numbering of SEQ ID NO: 20) (Zea mays, UniProt P55241+Q84PF5, A443R/D161G/I285V/Q96G).
T1 sequence (P55241 46-516 A443R/D161G/I285V/Q96G): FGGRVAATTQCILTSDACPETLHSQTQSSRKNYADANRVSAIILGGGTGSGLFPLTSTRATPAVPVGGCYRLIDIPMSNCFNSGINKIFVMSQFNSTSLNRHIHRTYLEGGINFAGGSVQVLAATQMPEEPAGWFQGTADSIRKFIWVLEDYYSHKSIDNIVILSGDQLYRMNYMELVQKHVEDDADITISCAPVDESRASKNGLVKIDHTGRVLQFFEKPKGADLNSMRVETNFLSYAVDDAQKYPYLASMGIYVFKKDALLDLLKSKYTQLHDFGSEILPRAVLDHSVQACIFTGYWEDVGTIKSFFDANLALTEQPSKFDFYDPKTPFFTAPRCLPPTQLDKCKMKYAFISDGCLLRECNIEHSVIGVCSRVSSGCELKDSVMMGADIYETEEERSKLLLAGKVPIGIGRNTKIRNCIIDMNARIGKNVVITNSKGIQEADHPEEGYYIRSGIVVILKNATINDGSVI
T1 sequence (Q84PF5 1-474): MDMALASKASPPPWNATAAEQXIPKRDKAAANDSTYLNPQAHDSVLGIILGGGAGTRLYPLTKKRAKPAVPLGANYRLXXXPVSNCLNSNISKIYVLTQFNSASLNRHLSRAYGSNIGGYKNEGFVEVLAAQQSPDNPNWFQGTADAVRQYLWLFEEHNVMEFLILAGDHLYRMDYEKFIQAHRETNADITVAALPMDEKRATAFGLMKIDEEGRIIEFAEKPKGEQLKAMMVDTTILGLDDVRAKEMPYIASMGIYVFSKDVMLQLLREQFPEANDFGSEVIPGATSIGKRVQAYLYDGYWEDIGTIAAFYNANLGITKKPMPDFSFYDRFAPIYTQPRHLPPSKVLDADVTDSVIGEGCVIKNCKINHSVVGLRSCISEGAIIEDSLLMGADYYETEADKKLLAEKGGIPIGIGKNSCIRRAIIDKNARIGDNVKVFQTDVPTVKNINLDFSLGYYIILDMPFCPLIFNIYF
Nature of the test: Apparent kinetic constants with 3-PGA, 37° C., GGRV. In kind it is biochemical. The settings on record: read-out: ATP Km. An excerpt: The small and large subunit plasmids of maize endosperm AGPase (pMONcBt2 and pMONcSh2, respectively) (Giroux et al., 1996) were expressed in E. coli AC70R1-504 cells (Iglesias et al., 1993) as previously described (Boehlein et al., 2008).
(§1) An endpoint assay was used to determine the rate of the AGPase reaction by coupling the formation of PPi to a decrease in NADH concentration (Boehlein et al., 2008). […] The Michaelis constants (Km) were obtained by varying one substrate in the presence of saturating concentrations of the second substrate. The activation constants were obtained by varying the activator at fixed levels of both substrates. All reactions were performed at 37° C. and mixes were prewarmed before starting the reaction with enzyme. […] The absorbance at 340 nm was monitored after 30 min and the amount of PPi produced was determined from a standard curve using PPi in complete reaction mixtures lacking AGPase. Blank samples contained complete reaction mixtures without enzyme and the change in absorbance between the blank and the reaction was used to calculate the amount of PPi produced. […]
(§2) The apparent Michaelis constant and maximum velocity of each reaction was calculated from a V vs. S plots using nonlinear regression analysis and the following equation, v=VmaxS/(Km+S), where v is the measured velocity, Vmax is the maximum velocity, S is the substrate concentration. […]

The target of test [2] is T2, maize endosperm AGPase variant T142F (Zea mays, UniProt P55241+Q84PF5, T142F).
T2 construct: data of Boehlein et al., 2013
T2 sequence (P55241 46-516 T142F): T1 sequence (P55241 46-516 A443R/D161G/I285V/Q96G) with G51Q, T97F, G116D, V240I, R398A
T2 sequence (Q84PF5 1-474): T1 sequence (Q84PF5 1-474)
In words: Apparent kinetic constants with 3-PGA, 37° C., T142F. In kind it is biochemical. To be noted: read-out: ATP Km, with 3-PGA, 37° C. As for the experimental part: as §1, §2
Each mutant, comprising 1, 2, 3 or 4 changes, was grown in a large scale culture, expressed and purified according to standard procedures (Boehlein et al., 2005). […] Next, the activation constant, Ka, was determined for each of the mutant enzymes. […]

Where a chain is given by its changes, count along the chain named.

Turning to `Nc1ncnc2c1ncn2[C@@H]1O[C@H](COP(=O)(O)OP(=O)(O)OP(=O)(O)O)[C@@H](O)[C@H]1O` [ATP], the Km stood at 46 µM in test [1] and 200 µM in test [2].

One may read the Km as the substrate concentration at which the rate is half of its maximum.
